Where “and” joins values, the source holds several entries; their conditions need not be identical. Equal values may be shown once. One block for each compound: values may come before it.
What was measured:
[1] = tested on: TRCs of A2780, A549, MCF-7, MDA-MB-435s, A375; test: Colony growth of TRCs of five human cancer cell lines (summary statements); type: cell-based
Procedure: Salmon fibrinogen and thrombin were purchased from Reagent Proteins (CA, USA). 3D fibrin gels were prepared as described previously[5],[6]. In brief, fibrinogen was diluted into 2 mg mL^−1 with T7 buffer (pH 7.4, 50 mM Tris, 150 mM NaCl). Cells were detached from 2D rigid dishes and cell density was adjusted to 10^4 cells per mL. Fibrinogen and cell solution mixture were made by mixing the same volume of fibrinogen solution and cell solution, resulting in 1 mg mL^−1 fibrinogen and 5000 cells per mL in the mixture fibrin gels. A volume of 50 μL cell/fibrinogen mixture was seeded into each well of 96-well plate and mixed well with pre-added 1 μL thrombin (100 U mL^−1). The cell culture plate was then incubated in 37 °C cell culture incubator for 10 min. Finally, 200 μL of DMEM medium containing 10% FBS and antibiotics was added.
Control B16-F1, A2780, A549, MCF-7, MDA-MB-435s, and A375 cells were cultured in 90-Pa fibrin gels to form round colonies and then treated with 0.1, 1, and 10 μM WYC-209, WYC-209A, and WYC-209B or 0.1% DMSO on day 3, which was washed out with pre-warmed PBS on day 4 with fresh medium, and then kept culturing till day 7 or day 9.

[2] = tested on: cleaved (active) caspase-3 and PARP; test: Western blotting of cleaved caspase-3 and PARP; type: cell-based, murine; settings: 10 μM, 24 h
Excerpt: To quantify the expression levels of RARα, RARβ, RARγ, caspase-3, cleaved caspase-3, and cleaved PARP, cells were lysed with RIPA lysis buffer. […] Primary antibodies were detected with mouse anti-Rabbit IgG-HRP (1:1000, Santa Cruz, sc-2357), donkey anti-goat IgG-HRP (1:1000, Santa Cruze, sc-2020), or anti-Mouse IgG-HRP (1:1000, Santa Cruz, sc-2005).
Supplementary Figure 37. WYC-209 induces cleaved caspase-3 and PARP expressions.
(a) Representative images of cleaved PARP and cleaved caspase-3 protein expressions in control B16-F1 cells cultured on 2D rigid dishes and treated 0.1% DMSO, 1 or 10 µM WYC-209, WYC-209A or WYC-209B for 24 h. (b) Representative images of cleaved PARP and cleaved caspase-3 protein expression of control B16-F1 cells seeded in 3D soft fibrin gels for […]
hours. (c, d) Quantification of expression levels of cleaved PARP and cleaved caspase-3 in (a). (e, f) Quantification of expression levels of cleaved PARP and cleaved caspase-3 in (b).
All values are normalized by GAPDH. Mean ± s.e.m.; 3 separate experiments; ns, not […]
(§1) (1 picture or pasted object on this page, not shown here)

B16-F1 TRCs [3] = test: Cell cycle analysis (BrdU flow cytometry), S phase of TRCs; type: cell-based, murine; settings: 10 μM, 24 hours
Procedure: For Annexin-V and PI staining to quantify cell apoptosis, treated TRCs were isolated from 3D fibrin gel by using 5 mg mL^−1 Dispase II (Sigma), cells were labeled with FITC-conjugated Annexin-V and PI according to the manufacturer’s instruction (Biolegend). Data were acquired on a BD Cantoll (BD biosciences) and analyzed with FlowJo software. For BrdU staining to quantify cell proliferation, cells were labeled with FITC-conjugated anti-BrdU antibody according to the manufacturer’s instruction (FITC BrdU Flow Kit, BD Biosciences) and then data were acquired on an Accuri C6 (BD Biosciences) and analyzed with BD Accuri C6 software.
Supplementary Figure 13. WYC-209 blocks S phase of TRCs. Different cancer cell lines cultured in 3D soft fibrin gel on day 0, then treated with 0.1, 1, or 10 μM WYC-209, WYC-209A, WYC-209B on day 4, isolated cells after 24 hours and labeled with FITC-conjugated anti-BrdU antibody for cell cycle analysis, 10 μM ATRA and Tazarotne as positive controls. (a) Representative images of flow cytometry in different conditions. (b) Quantification of S phase ratio in different conditions. Mean ± s.e.m.; n=3 independent experiments; * P<0.05; ** P<0.01; *** P<0.001 (Student’s t-test).
as §1

B16-F1 TRCs [4] = test: Colony growth of B16-F1 TRCs in 90-Pa 3D soft fibrin gels; type: cell-based, murine; settings: for IC50 lower / potency higher than that of Tazarotene: B16-F1 TRC growth; for inhibition at 10 µM / IC50: Mus musculus; for inhibition at 10 µM: B16-F1, 10 μM, treated on day 0, day 5; for IC50: B16-F1 in 90-Pa fibrin gels, treated on day 0, colony size on day 5; for Growth after re-plating into new soft fibrin gels without compound: washed out
[5] = tested on: unselected human cancer cells; test: Unselected human cancer cells on 2D rigid dishes; type: cell-based; settings: 10 μM, 48 hours
Procedure: Supplementary Figure 20. WYC-209 detaches adherent human cancer cells on rigid plastic. (a-e): human melanoma MDA-MB-435s (a), human breast cancer MCF-7 (b), human ovarian cancer A2780 (c), human malignant melanoma A375 (d), and human lung cancer A549 (e) were cultured on rigid plastics and treated with 0.1, 1, or 10 μM WYC-209, WYC-209A, or WYC-209B and cell numbers were measured for 48 hours. Cell nuclei were stained with DAPI. None: medium only; DMSO: medium containing 0.1% DMSO. Cell numbers per view field were quantified. Mean ± s.e.m.; n= 5 samples; 3 separate experiments; *P<0.05; ** P<0.01; *** P<0.001 […]
as §1

[6] = tested on: B16-F1 TRCs lung metastases; test: Lung metastasis of B16-F1 TRCs in immune-competent mice; type: in vivo, C57BL/6 mice; settings: for Metastases in H&E-stained organ sections: 0.022 mg kg-1; for Mice with lung metastases: 8 mice per group, day 30
Excerpt: Four- to six-week-old female and male C57BL/6 mice were used in mice experiment. Mice were randomized into different groups. In metastasis experiment, B16-F1 cell spheroids were selected from 3D 90-Pa fibrin gels and pipetted to single cells. These TRCs were harvested and the cell number was counted under microscopy. The cells were then suspended in PBS with appropriate cell density. Thirty thousand TRCs were intravenously injected into the tail vein of each wild-type C57BL/6 mouse. Five days later, inoculated mice were intravenous implanted with 0.022 mg kg^−1 WYC-209, 0.22 mg kg^−1 WYC-209, or 0.1% DMSO every two days. The mice were euthanized and examined for lung tumor formation at day 30. In treated TRCs injected in vivo experiments, B16-F1 cells were seeded into 3D 90-Pa fibrin gels and treated with 10 µM WYC-209 or 0.1% DMSO on day 3, then isolated treated TRCs colonies on day 5 and pipetted into single cell. 30,000 of TRCs were intravenously injected into the tail vein of each wild-type C57BL/6 mouse. No blinding was performed in the mice experiments.
Lung, liver, spleen, bone, stomach, and brain of C57BL/6 mice were fixed by 4% paraformaldehyde then were embedded in paraffin and cut to ~4 µm thick sections by Thermo FINESSE 325. Organ sections were stained by H&E and slides were evaluated for tumor formation by a veterinary pathologist blinded to sample identity.

[7] = pretreated with 10 µM, at least 5 days
[8] = 0.022 mg kg−1 i.v. every two days from day 5 after 30,000 TRCs i.v.
[9] = 0.22 mg kg−1 i.v. every two days from day 5 after 30,000 TRCs i.v.

- IC50 lower / potency higher than that of Tazarotene (B16-F1 TRCs [4]): about 10 fold
- IC50 (B16-F1 TRCs [4]): 150 nM
SMILES: CCOC(=O)c1cnc(C#Cc2ccc3c(c2)C(C)(C)CC[S@+]3[O-])nc1 [WYC-209A]
- Colony growth after washout and re-plating ([1]; pretreated at 10 μM): completely inhibited
- Colony growth after washout and re-plating ([1]; pretreated at 0.1 or 1 μM): partially inhibited
- Cleaved (active) caspase-3 and PARP [2]: increase
- Decrease of S phase of TRCs (B16-F1 TRCs [3]): completely abolished S phase
- inhibition at 10 µM (B16-F1 TRCs [4]): 100%
- Growth after re-plating into new soft fibrin gels without compound (B16-F1 TRCs [4]; [7]): none of the cells grew at all
- Growth after re-plating into new soft fibrin gels without compound (B16-F1 TRCs [4]; pretreated with 0.1 or 1 μM): some tumor cell growth
- Growth of unselected human cancer cells on 2D rigid dishes [5]: completely blocked cell growth
- Metastases in H&E-stained organ sections [6]: exhibited metastases in the lungs but not in other organs
- Mice with lung metastases [6, 8]: three out of eight
- Mice with lung metastases [6, 9]: one out of eight

SMILES: CCOC(=O)c1cnc(C#Cc2ccc3c(c2)C(C)(C)CC[S+]3[O-])nc1 (stereo not drawn) [WYC-209]
- IC50 ([1]; Homo sapiens, 0 h, treated on day 0, read-out: IC50 (range over five human TRC types)): 100 to 520 nM
- inhibition at 10 µM ([1]; Homo sapiens, 10 μM, read-out: Growth inhibition of all human TRCs): 100%
- Colony growth after washout and re-plating ([1]; pretreated at 10 μM): completely inhibited
- Colony growth after washout and re-plating ([1]; pretreated at 0.1 or 1 μM): partially inhibited
- TRC growth after drug washout ([1]; treated day 3, washed out day 4, 5 days after washout): failed to resume growth
- Cleaved (active) caspase-3 and PARP [2]: increase
- Decrease of S phase of TRCs (B16-F1 TRCs [3]): completely abolished S phase
- IC50 lower / potency higher than that of Tazarotene (B16-F1 TRCs [4]): about 10 fold
- inhibition at 10 µM (B16-F1 TRCs [4]): 100%
- IC50 (B16-F1 TRCs [4]): 190 nM
- Duration of effect after washout (long-lasting) (B16-F1 TRCs [4]; melanoma TRCs re-plated in fresh medium without compound): > 5 days
- Growth after re-plating into new soft fibrin gels without compound (B16-F1 TRCs [4]; [7]): none of the cells grew at all
- Growth after re-plating into new soft fibrin gels without compound (B16-F1 TRCs [4]; pretreated with 0.1 or 1 μM): some tumor cell growth
- Growth of unselected human cancer cells on 2D rigid dishes [5]: completely blocked cell growth
- Mice with lung metastases [6, 8]: four out of eight and 4/8
- Average lung weight versus DMSO group ([6]; 0.22 mg kg−1): less
- Lung metastases of melanoma TRCs abrogated ([6]; 0.22 mg kg−1): 87.5%
- Mice with lung metastases [6, 9]: one out of eight and 1/8
- Lung metastases in untreated mice injected with pretreated TRCs ([6]; TRCs pretreated with 10 µM in fibrin gels day 3-5, 30,000 TRCs i.v., 8 mice): no lung metastases

- IC50 lower / potency higher than that of Tazarotene (B16-F1 TRCs [4]): about 10 fold
- IC50 (B16-F1 TRCs [4]): 220 nM
SMILES: CCOC(=O)c1cnc(C#Cc2ccc3c(c2)C(C)(C)CC[S@@+]3[O-])nc1 [WYC-209B]
- Colony growth after washout and re-plating ([1]; pretreated at 10 μM): completely inhibited
- Colony growth after washout and re-plating ([1]; pretreated at 0.1 or 1 μM): partially inhibited
- Cleaved (active) caspase-3 and PARP [2]: increase
- Decrease of S phase of TRCs (B16-F1 TRCs [3]): completely abolished S phase
- inhibition at 10 µM (B16-F1 TRCs [4]): 100%
- Growth after re-plating into new soft fibrin gels without compound (B16-F1 TRCs [4]; [7]): none of the cells grew at all
- Growth after re-plating into new soft fibrin gels without compound (B16-F1 TRCs [4]; pretreated with 0.1 or 1 μM): some tumor cell growth
- Growth of unselected human cancer cells on 2D rigid dishes [5]: completely blocked cell growth
- Metastases in H&E-stained organ sections [6]: exhibited metastases in the lungs but not in other organs
- Mice with lung metastases [6, 8]: three out of eight
- Mice with lung metastases [6, 9]: one out of eight

Source: publication PMC5895803, “Inhibition of cancer stem cell like cells by a synthetic retinoid” (Nature Communications, 2018)
